One compound from PMC3227451, “Structure-based development of novel sirtuin inhibitors” (Aging (Albany NY), 2011) can be followed below.

In one assay the target is T1, Sirt2 (Homo sapiens, UniProt Q8IXJ6).
T1 sequence (Q8IXJ6 34-356): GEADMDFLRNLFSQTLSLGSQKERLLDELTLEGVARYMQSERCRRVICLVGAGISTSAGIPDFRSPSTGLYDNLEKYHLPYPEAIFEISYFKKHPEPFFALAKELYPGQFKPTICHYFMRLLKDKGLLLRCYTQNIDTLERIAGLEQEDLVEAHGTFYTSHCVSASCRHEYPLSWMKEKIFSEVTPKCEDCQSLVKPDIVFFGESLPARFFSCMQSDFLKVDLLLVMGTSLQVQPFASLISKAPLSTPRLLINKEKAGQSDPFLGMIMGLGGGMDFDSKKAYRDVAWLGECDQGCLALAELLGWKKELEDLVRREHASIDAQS
Nature of the assay: Fluor-de-Lys peptide deacetylation assay, Sirt2. It is filed as biochemical. A digest of the protocol:
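Full-length human Sirt2 (E. coli-expressed, purified, His-tag removed) incubated 30 min at 37 °C with 0.1 mM FdL-2 peptide (QPK(acetyl-K)), 0.5 mM NAD+ and compound at 100 μM final in kit buffer. Values corrected with compound-only (no Sirtuin) controls; screen in duplicate, dose-response in triplicate.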

The target in assay [1] is T2, Sirt2 (α-tubulin Lys40 deacetylation) (Homo sapiens, UniProt Q8IXJ6).
T2 construct: Human gene fragment comprising Sirt2 residues 34-356; His-tag with linker comprising a TEV protease cleavage site (N, cleaved yes); made in house; host or cells: E. coli Rosetta2; the protein was added to HEK 293T cell lysate
T2 sequence (Q8IXJ6 34-356): T1 sequence (Q8IXJ6 34-356)
Briefly: Tubulin deacetylation assay in HEK cell lysates with added Sirt2. The note with it: 100 μM compound, 1 μg Sirt2. It is filed as biochemical. How it is done: Our novel compounds 3 and 4 are potent and specific Sirt2 inhibitors in vitro, and we next tested the effect of 4 (compound 3 is likely to be sensitive to esterase activity in lysates) on the Sirt2-dependent deacetylation of an in vivo substrate in a physiological environment. The acetylation levels of the Sirt2-deacetylation site Lys40 in α-tubulin [12] were analyzed in HEK cell lysates by using an acetyl-Lys40 specific antibody (Figure 4a). […] Thus, compound 4 is an inhibitor for the physiological α-tubulin deacetylation activity of Sirt2.
HEK 293T cells were grown in DMEM medium (PAN Biotech) supplemented with 10% fetal bovine serum (PAN Biotech) at 37°C and 5% CO2. Cells were harvested, washed with PBS, and resuspended and lysed using hypotonic buffer (10mM Tris-HCl, pH 8.0, 3mM KCl) supplemented with protease inhibitors cocktail. Cell debris was removed by centrifugation (10,000g, 10 minutes) at 4°C, and 50μl reaction were prepared with identical amounts of cell lysate and either 100 μM compound 4, 1 μg Sirt2, or both. All samples further contained the same amount of DMSO (to account for the solvent of the stock of 4) and 25 mM HEPES (pH 7.5; to compensate for the solvent of the NAD^+ stock). […]

As for `CC12Cc3cnc(-c4ccccc4)nc3CC1CCC1C2CCC2(C)C1CCC2(C)O` (stereo not shown) [CSC13, 1,11a,13a-trimethyl-8-phenyl-2,3,3a,3b,4,5,5a,6,11,11a,11b,12,13,13a-tetradecahydro-1H-cyclopenta[5,6]naphtho[1,2-g]quinazolin-1-ol], on Sirt2, the “Effect on the activity of Sirt2” value is given as “inhibition (key: inhibition: significant inhibitory effects (>25% loss of activity); ---: no such effect)” and the IC50 (usually the midpoint of a concentration-inhibition curve) worked out at 9.7 ± 1.5 µM. Also, on Sirt2 (read-out: Sirt2 inhibition in the screen), the inhibition – broadly, how much of the control response was suppressed – at 100 µM was about 80%. Further, the “effect on Sirt2-dependent α-tubulin Lys40 deacetylation” value in assay [1] is listed as “the deacetylation effect was decreased”.
